The conditions of data set [1]: continuous subcutaneous administration, Parkinson's disease patients; cited from earlier work.
The nature of data set [2]: Pharmacokinetic study in 10 healthy subjects: intravenous infusion vs oral capsules. In kind it is in vivo, human. The settings on record: for Tmax / Cmax / half-life: fasted healthy subjects.
The subject of a further data set is fluid percussion injury. The settings on record: chronic amantadine-pumping infusion, cited from earlier work.
For data set [3] the following is noted: postmortem brain tissue of 21 patients previously treated with amantadine sulfate; cited from earlier work.
For data set [4], the system named is persistent vegetative state. The settings on record: single patient; 100 mg/day intravenously increased to 300 mg/day, then enteral; cited from earlier work.
Data set [5] is described as follows: Osmolality of amantadine hydrochloride solution in sterile water for injection. In kind it is physicochemical. An excerpt:
Examples of tonicity agents that can be used in the compositions of the present invention include, but are not limited to, sodium chloride, mannitol, dextrose, potassium chloride, sodium chloride and mixtures thereof. The tonicity agents may be present in an amount so as to provide osmolality of from about 250 mOsm/kg to about 350 mOsm/kg, particularly from 280 mOsm/kg to 320 mOsm/kg.

Structures can show the parent of a compound that is named as a salt. Where two headings read alike, the source gives them in different places.

For the molecule `CN1CCc2cccc3c2[C@H]1Cc1ccc(O)c(O)c1-3` [apomorphine], the “eosinophilia and orthostatic hypotension, share of PD patients” value in data set [1] is “less than 5%”.

Regarding `NC12CC3CC(CC(C3)C1)C2` [amantadine, 1-amantanamine], the “Peak and total plasma exposures following the infusion, lower than reference oral dose” value in data set [2] (50 mg intravenous infusion vs 200 mg oral dose) was “approximately 5 fold”. Also, the Tmax – broadly, the time at which the peak concentration occurs – in data set [2] (human, plasma, iv, 50 mg, Treatment A: single 50 mg dose, intravenous infusion over 180 minutes, plasma, read-out: mean Tmax) turned out to be 4.1 h; in data set [2] (human, plasma, iv, 50 mg, Treatment A: single 50 mg dose, intravenous infusion over 180 minutes, plasma, read-out: median Tmax), 4 h; in data set [2] (human, plasma, po, 200 mg, Treatment B: single 200 mg oral dose as 2×100 mg capsules, plasma, read-out: mean Tmax) it was 3.6 h; in data set [2] (human, plasma, po, 200 mg, Treatment B: single 200 mg oral dose as 2×100 mg capsules, plasma, read-out: median Tmax) it was 2.8 h. Further, the bioavailability in data set [2] (human, plasma, 200 mg oral, from LSGM A/B ratio of CLIV to CLIV/F, read-out: bioavailability of the oral capsule) turned out to be 122%. Moreover, the Cmax (as a rule, the highest concentration seen after dosing) in data set [2] (human, Treatment A: single 50 mg dose, intravenous infusion over 180 minutes, plasma) came out at 142 ng/mL; in data set [2] (human, Treatment B: single 200 mg oral dose as 2×100 mg capsules, plasma), 643 ng/mL. The half-life is 14 h in data set [2] (human, Treatment A: single 50 mg dose, intravenous infusion over 180 minutes, plasma, read-out: mean apparent first-order elimination half-life (T1/2) (converted)) and 14.6 h in data set [2] (human, Treatment B: single 200 mg oral dose as 2×100 mg capsules, plasma, read-out: mean T1/2 (converted)). Moreover, the dopamine-release deficits result in the data set on fluid percussion injury (rats after fluid percussion injury) was “reversed”. Also, the “behavioral impairment after fluid percussion injuries” value with fluid percussion injury (rats) was “ameliorated”. Besides, the “elimination half-life from brain tissue” value in data set [3] is “much longer than from blood”. In addition, in data set [4], the “clinical outcome in persistent vegetative state” value is listed as “stunning awakening of the patient, fully orientated within days”.

`NC12CC3CC(CC(C3)C1)C2` [amantadine hydrochloride]: the Osmolality amounted to 97 mOsm/kg in data set [5] (10 mg/ml solution in sterile water for injection); 192 mOsm/kg in data set [5] (20 mg/ml solution in sterile water for injection); 283 mOsm/kg in data set [5] (30 mg/ml solution in sterile water for injection); 369 mOsm/kg in data set [5] (40 mg/ml solution in sterile water for injection); 509 mOsm/kg in data set [5] (50 mg/ml solution in sterile water for injection); 671 mOsm/kg in data set [5] (75 mg/ml solution in sterile water for injection).

The values are drawn from patent US11707439B2, “Parenteral treatments involving aminoadamantane derivatives” (Shinkei Therapeutics, Inc., priority 2019, dated 2023).
